In patent US20110150914A1, “COMPOSITIONS AND METHODS FOR DENGUE VIRUS (DV) TREATMENT AND VACCINATION” (priority 2008, published 2011):
Ends that are not written are not given here.

Tests used:
[1] = biological target: T1, purified H-2 D^b molecules (Mus musculus, UniProt P01899); assay: MHC peptide-binding assay, purified H-2 D^b; settings: purified MHC, radiolabeled peptide competition; read-out: Binding affinity (IC50 nM) H2-D^b
T1 construct: made in house
Method: (§1) Briefly, 0.1-1 nM of radiolabeled peptide was co-incubated at room temperature with 1 μM to 1 nM of purified MHC in the presence of 1-3 μM human β2-microglobulin (Scripps Laboratories) and a mixture of protease inhibitors. After a 2 day incubation, binding of the radiolabeled peptide to the corresponding MHC class I molecule was determined by capturing MHC/peptide complexes on Lumitrac 600 microplates (Greiner Bio-One) coated with either the Y3 (anti-H-2 K^b) or 28-14-8S (anti-H-2 D^b, L^d and D^q) Ab, followed by measurement of bound counts per minute (cpm) using the TopCount microscintillation counter (Packard).

CD8^+ T cells [2] = assay: IFN-γ ELISPOT with CD8^+ T cells of DENV2-infected C57BL/6 mice; format: cell-based; settings: PL046 or S221 infected C57BL/6 mice
CD8^+ T cells [3] = assay: Intracellular cytokine staining (IFN-γ), splenocytes of S221-infected wild-type mice; format: cell-based, C57BL/6 mice
Method: All Ab were purchased from eBioscience with the exception of anti-CD8α-PerCP and anti-CD107a-FITC which were obtained from BD Biosciences. RBC in blood were lysed using RBC lysis buffer (eBioscience). For surface staining, splenocytes or blood cells were washed, incubated with supernatant from 2.4G2-producing hybridoma cells to block Fc receptors, and labeled with anti-CD8α-PerCP, anti-CD44-APC, and anti-CD62L-PE. For intracellular cytokine staining, 10^6 splenocytes or 10^5 blood cells were plated in 96-well U-bottom plates and stimulated with individual DENV peptides (0.1 μg/ml) in the presence of brefeldin A (GolgiPlug, BD Biosciences) for 5 h. For CD107a staining, CD107a-FITC (or rat IgG2a-FITC) was added to the wells at the same time as the peptide. Cells were washed, incubated with 2.4G2 supernatant, labeled with anti-CD8α-PerCP, fixed and permeabilized using the BD Cytofix/Cytoperm Kit, and stained with anti-IFN-γ-APC and anti-TNF-α-PE. Samples were read on a FACS Caliber (BD Biosciences) and analyzed using FloJo software (Tree Star, Inc.)
To confirm that the IFN-γ response to the MHC class I-binding DENV peptides was mediated by CD8^+ T cells, intracellular cytokine staining (ICS) on CD8^+ T cells isolated from S221-infected wild-type mice was performed. Splenocytes were harvested from C57BL/6 mice 7 days after infection with 10^11 genomic equivlalents (GE) S221 and were re-stimulated in vitro with individual DENV2 peptides or an irrelevant peptide (irr) at 0.1 μg/ml in the presence of brefeldin A for 5 h. Cells were then stained for surface CD8 and intracellular IFN-γ and analyzed by flow cytometry. […] The percent of CD8^+ T cells producing IFN-γ is indicated. Referring to FIG. 2B, the figure is a summary of the DENV2-specific CD8^+ IFN-γ^+ response. The response to the irrelevant control peptide was subtracted from the responses to each DENV2 peptide. Each symbol represents one mouse and the bar represents the geometric mean. The identification of the 12 positive peptides for S221 was confirmed by the intracellular cytokine staining (ICS) (FIG. 2A), and the response to the 8 most dominant peptides was determined (FIG. 2B). The responses ranged from 0.14% recognizing NS2A 36 to 9.8% of CD8^+ T cells recognizing NS4B 99.
Splenocytes were harvested from naïve C57BL/6 mice or mice 7 days after infection with 10^11 GE of S221. The percent of CD8^+ T cells expressing CD44 and CD62L was determined in four independent studies (FIG. 3A). On day 7 after infection, splenocytes were stimulated with the eight major DENV2 peptides (individually; at 0.1 μg/ml) in the presence of brefeldin A, and stained for surface CD8 and intracellular IFN-γ. The percent of CD8^+ T cells producing IFN-γ in response to the irrelevant control peptide was subtracted from the response to each DENV2 peptide to determine the net response. The net responses to the eight major DENV2 peptides were added to determine the percent of DENV2-specific CD44^hi, CD62^lo, and CD44^hiCD62L^lo CD8^+ T cells (FIG. 3B). The data are expressed as the mean percent±SEM of 11-14 mice tested in at least four independent experiments.

[4] = biological target: T2, purified H-2 K^b molecules (Mus musculus, UniProt P01901); assay: MHC peptide-binding assay, purified H-2 K^b; settings: purified MHC, radiolabeled peptide competition; read-out: Binding affinity (IC50 nM) H2-K^b
T2 construct: made in house
T2 sequence (P61769 21-119): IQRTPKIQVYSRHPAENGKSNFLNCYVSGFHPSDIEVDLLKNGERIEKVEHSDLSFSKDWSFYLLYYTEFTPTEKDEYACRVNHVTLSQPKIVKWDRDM
T2 sequence (P01901 22-369): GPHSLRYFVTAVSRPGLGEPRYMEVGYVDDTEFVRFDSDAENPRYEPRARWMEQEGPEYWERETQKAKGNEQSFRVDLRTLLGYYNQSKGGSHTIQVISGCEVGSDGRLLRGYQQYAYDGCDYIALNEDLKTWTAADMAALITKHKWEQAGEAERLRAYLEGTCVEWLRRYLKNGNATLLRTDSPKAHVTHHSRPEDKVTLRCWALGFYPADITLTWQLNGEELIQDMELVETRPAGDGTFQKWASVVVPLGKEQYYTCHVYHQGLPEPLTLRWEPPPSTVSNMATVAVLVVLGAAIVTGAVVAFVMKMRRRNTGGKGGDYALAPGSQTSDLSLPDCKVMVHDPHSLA
Method: as §1, with “MHC purification and quantitative assays to measure the binding affinity of peptides to purified H-2 K^b and H-2 D^b molecules were performed as previously described (Sidney et al., Curr Protoc Immunol 18:1813 2001); Vitiello et al., J Immunol 157:5555 (1996)). Briefly,” for “Briefly,”
To confirm the MHC class I restriction of the 12 identified epitopes, measurements were performed of their MHC binding capacity using purified K^b and D^b molecules in an in vitro binding assay. Seven of the 12 epitopes bound the predicted allele with either high or intermediate affinity, as indicated by an IC50 of <50 nM or <500 nM, respectively. The five remaining epitopes also bound with biologically relevant affinities in the 500-2000 nM range.

T1 sequence (P61769 21-119): as the sequence (P61769 21-119) above
T1 sequence (P01899 25-362): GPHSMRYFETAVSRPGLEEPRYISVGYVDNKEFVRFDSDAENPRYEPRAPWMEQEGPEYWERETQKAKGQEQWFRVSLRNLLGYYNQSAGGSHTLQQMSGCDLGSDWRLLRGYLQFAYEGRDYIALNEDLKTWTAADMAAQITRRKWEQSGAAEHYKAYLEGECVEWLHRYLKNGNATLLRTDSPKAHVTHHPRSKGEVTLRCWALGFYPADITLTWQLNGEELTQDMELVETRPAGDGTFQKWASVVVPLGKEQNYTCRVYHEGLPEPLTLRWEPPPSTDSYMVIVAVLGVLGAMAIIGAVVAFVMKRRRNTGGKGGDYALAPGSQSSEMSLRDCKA

Sequence: YSQVNPITL [NS4B99-107]
- IC50 [1]: 1.3 nM
- IFN-γ ELISPOT response (net SFC per 10^6 CD8^+ T cells), in words (CD8^+ T cells [2]): highest responses
- percent of CD8^+ T cells producing IFN-γ / recognizing the peptide (CD8^+ T cells [3]; wild-type C57BL/6, day 7 after 10^11 GE S221, peptide 0.1 μg/ml, 5 h): 9.8%
- share of the DENV2-specific response (CD8^+ T cells [3]; wild-type C57BL/6 mice): 30%
- % of splenic CD8^+ T cells (corresponding to average number) (CD8^+ T cells [3]; wild-type mice, day 7 after 10^11 GE S221): 5.9%
- number of CD8^+ T cells producing IFN-γ (average) (CD8^+ T cells [3]; wild-type mice, spleen, day 7 after 10^11 GE S221): 6.3×10^5 CD8^+ T cells
- IC50 [4]: 1890 nM
